Results as given in ChEMBL document CHEMBL1201862, “PubChem BioAssay data set” (2004).
Activity calls are given as the source filed them.

Tests used:
Fatty acid synthase [1] = molecular target: T1, Fatty acid synthase (Homo sapiens, UniProt P49327); test: inhibition of human FAS-TE enzyme activity – biochemical, kinetic fluorescence intensity, dose response (AID 624326); assay type: functional;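 also: rate of fluorescence rise from hydrolysis of a fluorogenic O-methyl fluorescein ester substrate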
Fatty acid synthase [2] = molecular target: T1, Fatty acid synthase; test: inhibition of human FAS-TE enzyme activity – biochemical, endpoint fluorescence intensity, uHTS hits, dose response (AID 624327); assay type: functional;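 also: fluorescence from hydrolysis of an O-methyl fluorescein acyl ester substrate by the enzyme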
Cytochrome P450 3A4 = Cytochrome P450 3A4 (Homo sapiens, UniProt P08684);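 also: CYP3A4 tested as one member of a cytochrome P450 panel screen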
Cytochrome P450 2C9 = Cytochrome P450 2C9 (Homo sapiens, UniProt P11712)
[3] = molecular target: T2, Carboxy-terminal domain RNA polymerase II polypeptide A small phosphatase 1 (Homo sapiens, UniProt Q9GZU7); test: CTDSP1 inhibitors, concentration-response, biochemical, absorbance readout, ultra-high-throughput screen actives (AID 540297); assay type: functional
T2 sequence (Q9GZU7 whole entry): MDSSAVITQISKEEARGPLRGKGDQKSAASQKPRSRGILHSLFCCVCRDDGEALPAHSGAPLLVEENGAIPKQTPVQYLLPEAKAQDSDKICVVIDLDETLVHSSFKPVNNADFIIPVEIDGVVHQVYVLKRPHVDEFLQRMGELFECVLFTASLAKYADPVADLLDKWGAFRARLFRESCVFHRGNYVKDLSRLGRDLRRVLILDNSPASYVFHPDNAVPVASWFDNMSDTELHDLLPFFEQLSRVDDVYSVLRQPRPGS

Cytochrome P450 2D6 = Cytochrome P450 2D6 (Homo sapiens, UniProt P10635);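 also: CYP2D6 member of a cytochrome P450 panel assay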
[4] = molecular target: Luciferin 4-monooxygenase (Photinus pyralis, UniProt P08659); test: inhibition of purified Photinus pyralis luciferase – biochemical, luminescence, dose response (AID 1891)
[5] = Luminescence Cell-Based Dose Confirmation HTS to Identify Inhibitors of Platelet Dense Granule Release. [Related pubchem assays: 1663 (Primary HTS), 1678 (Summary of Project)]; assay type: functional
cells [6] = assay type: functional, cell-based
cells [7] = assay type: functional, cell-based; remark: listed apart in the source
[8] = molecular target: FAD-linked sulfhydryl oxidase ALR (Homo sapiens, UniProt P55789); test: ALR-catalysed DTT oxidation blockers – biochemical, H2O2 detection, luminescence, cherry-pick, dose response (AID 493248)
Genome polyprotein = Genome polyprotein (dengue virus type 2, UniProt P29990); test: flavivirus cap methylation enzyme inhibition – biochemical, confirmation dose response, primary screen (AID 588689); assay type: functional
Large T antigen = Large T antigen (Simian virus 40, UniProt P03070); assay type: functional, Betapolyomavirus macacae;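 also: Confirmatory-stage PubChem screen for compounds that inhibit SV40 T antigen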
Cytochrome P450 1A2 = molecular target: T3, Cytochrome P450 1A2 (Homo sapiens, UniProt P05177);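 also: PubChem cytochrome P450 panel assay, CYP1A2 panel member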
T3 sequence (P05177 whole entry): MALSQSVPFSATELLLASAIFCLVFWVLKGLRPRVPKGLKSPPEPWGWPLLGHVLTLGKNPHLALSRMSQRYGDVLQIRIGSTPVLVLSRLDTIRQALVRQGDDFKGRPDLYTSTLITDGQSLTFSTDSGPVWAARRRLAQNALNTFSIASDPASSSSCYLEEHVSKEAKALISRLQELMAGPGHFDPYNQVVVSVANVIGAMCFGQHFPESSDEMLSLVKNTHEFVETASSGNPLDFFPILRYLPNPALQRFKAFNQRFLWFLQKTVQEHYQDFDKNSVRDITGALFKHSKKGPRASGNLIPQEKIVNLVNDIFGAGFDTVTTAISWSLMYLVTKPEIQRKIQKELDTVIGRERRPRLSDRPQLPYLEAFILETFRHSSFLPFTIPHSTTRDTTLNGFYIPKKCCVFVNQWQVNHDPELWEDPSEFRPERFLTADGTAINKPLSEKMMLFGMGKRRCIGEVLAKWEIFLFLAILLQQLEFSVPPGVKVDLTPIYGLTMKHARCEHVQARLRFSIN

Paired box protein Pax-8 = Paired box protein Pax-8 (Homo sapiens, UniProt Q06710); test: PAX8 transcriptional activity inhibition in RMG-I – RMG-I cells, luciferase, cherry-pick, dose response (AID 687027); assay type: functional, cell-based;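 also: luciferase reporter driven by Pax8 target thyroperoxidase promoter measured by SteadyGlo luminescence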
[9] = OVCAR-3 cell viability loss – plate reader, dry powder samples, PAX8 inhibitor project, dose response (AID 743044); assay type: functional, cell-based
Cytochrome P450 2C19 = Cytochrome P450 2C19 (Homo sapiens, UniProt P33261); test: Cytochrome panel assay with activity outcomes. Panel member name: p450-cyp2c19 Compounds with AC50 equal or less than 10 uM are considered active; assay type: functional; conditions: read-out: AC50
[10] = NIH-3T3 fibroblast cytotoxicity, dose response, cytotoxicity control, cell-based, fluorescence, Alamar Blue, secondary assay (AID 2327); assay type: functional;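 also: NIH-3T3 mouse fibroblasts cultured with fluconazole at 8 µg/mL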
[11] = fluconazole-exposed Candida albicans growth modulators – fluorescence, retest, confirmation (AID 2467); assay type: functional, cell-based
[12] = HIV-1 AD8 envelope cell-cell fusion blockers – cherry-pick, dose response (AID 652062); assay type: functional, cell-based;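 also: luciferase signal from cell-cell fusion driven by HIV-1 clade B AD8 Env; potency is for inhibitors of fusion seen as a drop in luminescence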
[13] = Luminescence Cell-Based Dose Response HTS to Identify Inhibitors of 5'UTR Stem-Loop Driven Prion Protein mRNA Translation in H4 Neuroglioblastoma Cells. [Related pubchem assays: 1827 (Project Summary), 1813 (Primary HTS)]; assay type: functional
[14] = luciferase reporter signal suppression in cells – H4 neuroglioma cells, luminescence, dose response (AID 1990); assay type: functional, cell-based
[15] = alpha-synuclein stem-loop luciferase translation blockers – H4 neuroglioma cells, luminescence, confirmation (AID 1988); assay type: functional, cell-based

T1 sequence (P49327 whole entry): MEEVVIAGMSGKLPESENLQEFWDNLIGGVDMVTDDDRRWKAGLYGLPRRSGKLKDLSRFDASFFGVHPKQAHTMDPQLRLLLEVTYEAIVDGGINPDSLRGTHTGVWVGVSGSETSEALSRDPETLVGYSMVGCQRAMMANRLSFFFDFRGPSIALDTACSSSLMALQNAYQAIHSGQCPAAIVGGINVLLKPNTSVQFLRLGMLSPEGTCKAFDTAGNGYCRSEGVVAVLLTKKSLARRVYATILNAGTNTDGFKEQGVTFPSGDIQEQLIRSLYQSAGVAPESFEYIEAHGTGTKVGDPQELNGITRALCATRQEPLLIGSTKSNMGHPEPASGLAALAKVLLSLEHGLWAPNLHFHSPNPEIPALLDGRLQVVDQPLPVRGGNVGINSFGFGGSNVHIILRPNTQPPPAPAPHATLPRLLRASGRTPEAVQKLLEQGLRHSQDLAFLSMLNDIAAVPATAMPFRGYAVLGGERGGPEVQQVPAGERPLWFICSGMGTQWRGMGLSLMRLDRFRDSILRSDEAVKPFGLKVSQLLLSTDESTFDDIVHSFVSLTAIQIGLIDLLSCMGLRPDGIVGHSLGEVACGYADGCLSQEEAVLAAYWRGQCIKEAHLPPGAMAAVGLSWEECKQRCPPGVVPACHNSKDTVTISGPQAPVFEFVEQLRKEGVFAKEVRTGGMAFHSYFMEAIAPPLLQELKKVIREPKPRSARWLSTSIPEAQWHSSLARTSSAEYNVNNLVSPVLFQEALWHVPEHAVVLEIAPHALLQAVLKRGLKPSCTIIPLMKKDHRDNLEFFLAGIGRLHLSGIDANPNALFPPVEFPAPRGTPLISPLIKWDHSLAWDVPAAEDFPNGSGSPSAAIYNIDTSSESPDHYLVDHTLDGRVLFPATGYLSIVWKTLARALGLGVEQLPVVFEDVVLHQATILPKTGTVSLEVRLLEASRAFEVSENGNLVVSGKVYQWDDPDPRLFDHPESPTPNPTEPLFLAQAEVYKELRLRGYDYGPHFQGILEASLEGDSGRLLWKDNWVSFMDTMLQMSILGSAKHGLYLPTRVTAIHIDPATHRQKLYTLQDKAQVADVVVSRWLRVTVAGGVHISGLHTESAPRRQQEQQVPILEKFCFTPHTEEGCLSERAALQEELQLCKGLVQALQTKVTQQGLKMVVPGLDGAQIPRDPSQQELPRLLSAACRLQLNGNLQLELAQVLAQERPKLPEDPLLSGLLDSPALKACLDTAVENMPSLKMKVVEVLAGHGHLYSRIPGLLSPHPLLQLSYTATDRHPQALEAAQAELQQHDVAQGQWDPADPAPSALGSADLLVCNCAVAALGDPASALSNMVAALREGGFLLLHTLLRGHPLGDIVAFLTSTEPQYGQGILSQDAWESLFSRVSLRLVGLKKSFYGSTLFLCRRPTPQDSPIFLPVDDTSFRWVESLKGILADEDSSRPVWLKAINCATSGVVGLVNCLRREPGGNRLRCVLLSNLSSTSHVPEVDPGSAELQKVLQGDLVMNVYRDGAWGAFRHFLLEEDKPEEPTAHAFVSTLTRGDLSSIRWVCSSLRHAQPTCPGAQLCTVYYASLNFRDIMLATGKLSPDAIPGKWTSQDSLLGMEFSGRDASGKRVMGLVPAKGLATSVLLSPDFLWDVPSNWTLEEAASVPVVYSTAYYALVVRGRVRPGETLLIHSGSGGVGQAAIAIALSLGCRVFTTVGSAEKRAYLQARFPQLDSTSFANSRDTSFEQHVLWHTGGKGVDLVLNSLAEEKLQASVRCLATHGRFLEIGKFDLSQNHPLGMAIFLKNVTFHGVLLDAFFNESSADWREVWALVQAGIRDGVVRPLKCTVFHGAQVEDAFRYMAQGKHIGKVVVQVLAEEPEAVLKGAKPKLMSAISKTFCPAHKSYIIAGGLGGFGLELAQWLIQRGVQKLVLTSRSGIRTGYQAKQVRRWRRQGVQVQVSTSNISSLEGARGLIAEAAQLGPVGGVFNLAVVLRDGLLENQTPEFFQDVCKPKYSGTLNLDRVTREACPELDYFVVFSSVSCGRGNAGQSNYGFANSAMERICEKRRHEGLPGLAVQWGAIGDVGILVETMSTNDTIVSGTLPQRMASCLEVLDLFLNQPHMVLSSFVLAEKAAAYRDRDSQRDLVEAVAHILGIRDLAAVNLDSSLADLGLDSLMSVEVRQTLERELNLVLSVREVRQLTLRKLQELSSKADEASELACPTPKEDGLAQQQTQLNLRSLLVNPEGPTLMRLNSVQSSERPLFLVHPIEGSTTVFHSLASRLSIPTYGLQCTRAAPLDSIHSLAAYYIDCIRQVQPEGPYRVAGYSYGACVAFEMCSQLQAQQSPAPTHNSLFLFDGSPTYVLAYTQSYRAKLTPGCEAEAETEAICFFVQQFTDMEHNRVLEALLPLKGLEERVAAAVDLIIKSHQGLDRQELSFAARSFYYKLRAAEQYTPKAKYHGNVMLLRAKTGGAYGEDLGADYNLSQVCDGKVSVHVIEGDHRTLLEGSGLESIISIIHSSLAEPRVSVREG
Sequence of Cytochrome P450 2C9 (P11712 whole entry, the tested form may be a part): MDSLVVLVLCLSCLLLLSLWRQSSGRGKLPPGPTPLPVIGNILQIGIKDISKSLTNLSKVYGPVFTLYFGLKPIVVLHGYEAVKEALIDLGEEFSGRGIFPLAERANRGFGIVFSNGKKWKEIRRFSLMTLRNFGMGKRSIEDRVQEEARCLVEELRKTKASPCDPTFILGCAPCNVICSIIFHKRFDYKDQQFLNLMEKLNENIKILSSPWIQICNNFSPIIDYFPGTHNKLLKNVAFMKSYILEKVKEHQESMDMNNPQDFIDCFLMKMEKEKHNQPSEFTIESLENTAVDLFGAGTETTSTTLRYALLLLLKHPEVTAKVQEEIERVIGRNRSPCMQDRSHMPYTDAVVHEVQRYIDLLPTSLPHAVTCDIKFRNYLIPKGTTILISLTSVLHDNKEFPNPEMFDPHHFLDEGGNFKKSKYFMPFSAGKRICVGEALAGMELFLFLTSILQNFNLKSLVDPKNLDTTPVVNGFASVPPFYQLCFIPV
Sequence of Luciferin 4-monooxygenase (P08659 whole entry): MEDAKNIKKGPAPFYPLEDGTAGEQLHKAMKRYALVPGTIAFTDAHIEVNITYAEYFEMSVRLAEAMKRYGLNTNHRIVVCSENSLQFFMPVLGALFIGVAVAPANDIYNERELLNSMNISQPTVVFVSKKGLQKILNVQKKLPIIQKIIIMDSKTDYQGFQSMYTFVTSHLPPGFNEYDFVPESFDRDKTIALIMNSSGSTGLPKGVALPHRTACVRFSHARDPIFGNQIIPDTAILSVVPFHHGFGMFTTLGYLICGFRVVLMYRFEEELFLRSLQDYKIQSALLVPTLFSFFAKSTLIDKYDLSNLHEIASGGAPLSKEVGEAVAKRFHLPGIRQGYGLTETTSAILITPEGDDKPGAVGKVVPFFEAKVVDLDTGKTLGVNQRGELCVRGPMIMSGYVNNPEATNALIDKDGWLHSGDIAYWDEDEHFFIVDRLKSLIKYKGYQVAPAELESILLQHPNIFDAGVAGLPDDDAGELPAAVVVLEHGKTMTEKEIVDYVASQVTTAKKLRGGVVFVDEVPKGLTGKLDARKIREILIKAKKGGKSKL
Sequence of Cytochrome P450 2D6 (P10635 whole entry): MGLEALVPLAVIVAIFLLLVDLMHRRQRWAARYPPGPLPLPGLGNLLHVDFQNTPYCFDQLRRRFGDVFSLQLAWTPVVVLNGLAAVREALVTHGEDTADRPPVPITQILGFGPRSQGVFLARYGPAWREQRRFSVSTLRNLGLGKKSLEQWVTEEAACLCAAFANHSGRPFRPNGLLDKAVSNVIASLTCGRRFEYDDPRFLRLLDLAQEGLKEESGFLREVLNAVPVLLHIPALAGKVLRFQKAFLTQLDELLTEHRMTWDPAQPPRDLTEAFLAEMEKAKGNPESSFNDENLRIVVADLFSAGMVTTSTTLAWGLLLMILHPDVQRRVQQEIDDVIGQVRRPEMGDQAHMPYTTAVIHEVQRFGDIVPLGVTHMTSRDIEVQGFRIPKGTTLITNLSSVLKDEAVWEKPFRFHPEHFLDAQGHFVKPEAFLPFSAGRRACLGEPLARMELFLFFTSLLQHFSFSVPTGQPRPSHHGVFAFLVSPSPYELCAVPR
Sequence of Paired box protein Pax-8 (Q06710 whole entry): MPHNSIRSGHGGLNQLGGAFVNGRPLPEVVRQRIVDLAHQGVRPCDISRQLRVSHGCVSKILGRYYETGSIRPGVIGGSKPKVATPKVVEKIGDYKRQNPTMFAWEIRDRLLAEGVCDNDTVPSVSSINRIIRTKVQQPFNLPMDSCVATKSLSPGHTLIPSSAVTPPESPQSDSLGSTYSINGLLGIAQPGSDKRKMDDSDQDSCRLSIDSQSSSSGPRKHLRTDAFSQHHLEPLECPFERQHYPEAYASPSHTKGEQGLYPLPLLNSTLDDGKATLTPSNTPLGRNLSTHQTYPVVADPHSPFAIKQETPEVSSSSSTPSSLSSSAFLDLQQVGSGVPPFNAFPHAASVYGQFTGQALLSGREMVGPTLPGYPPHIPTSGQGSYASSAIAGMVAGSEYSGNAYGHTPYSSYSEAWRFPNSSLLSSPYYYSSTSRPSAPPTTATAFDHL
Sequence of Cytochrome P450 3A4 (P08684 whole entry): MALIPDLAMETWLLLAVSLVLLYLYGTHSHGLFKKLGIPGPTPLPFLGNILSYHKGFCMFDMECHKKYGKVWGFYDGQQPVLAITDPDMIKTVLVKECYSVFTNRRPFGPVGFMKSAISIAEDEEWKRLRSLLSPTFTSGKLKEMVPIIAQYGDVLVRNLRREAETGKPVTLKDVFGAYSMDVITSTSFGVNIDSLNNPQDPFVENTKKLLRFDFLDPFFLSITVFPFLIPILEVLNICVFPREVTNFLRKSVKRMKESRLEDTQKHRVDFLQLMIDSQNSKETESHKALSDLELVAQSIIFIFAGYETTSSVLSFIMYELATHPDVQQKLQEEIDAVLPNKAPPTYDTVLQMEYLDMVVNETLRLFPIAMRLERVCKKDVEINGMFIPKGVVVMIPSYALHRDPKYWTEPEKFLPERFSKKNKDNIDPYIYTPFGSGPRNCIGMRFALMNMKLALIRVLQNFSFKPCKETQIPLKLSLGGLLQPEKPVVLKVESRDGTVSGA

SMILES: CC1CCCC(C)N1C(=O)COC(=O)c1cc([N+](=O)[O-])ccc1N1CCOCC1 (centres undefined)
- IC50 (Fatty acid synthase [1]): 9.93 µM (active)
- IC50 (Fatty acid synthase [2]): 7.31 µM (active)

SMILES: CC(=O)Nc1cc(S(=O)(=O)Nc2ccccc2)c(C)cc1C
- AC50 (Cytochrome P450 3A4): 28.2 µM (inconclusive)
- AC50 (Cytochrome P450 2C9): inconclusive

SMILES: COc1cc(/C=C(/C#N)C(=O)Nc2ccccc2)ccc1OCc1ccc(C(=O)O)cc1
- IC50 [3]: 3.34 µM (active)

SMILES: COc1ccc(S(=O)(=O)NCCC(=O)NCc2ccc(F)cc2)cc1
- AC50 (Cytochrome P450 2D6): 50.1 µM (inconclusive)
- AC50 (Cytochrome P450 3A4): 28.2 µM (inconclusive)
- AC50 (Cytochrome P450 2C9): inconclusive

SMILES: CCOc1ccc(-c2ccc(NS(=O)(=O)c3cc([N+](=O)[O-])c(C)c([N+](=O)[O-])c3)cc2)nn1
- IC50 (Fatty acid synthase [1]): 0.706 µM (active)
- IC50 (Fatty acid synthase [2]): 0.872 µM (active)

SMILES: Cc1cnc(C(=O)OCC(=O)Nc2ccc(Cl)cc2Cl)cn1
- EC50 [4]: > 112 µM (not active)
- EC50 [5]: 14.8 µM (active)

SMILES: O=C(NCC1CCCO1)c1cc(-c2ccc(F)cc2)no1 (centres undefined)
- EC50 (cells [6]): 143 µM (active)
- EC50 (cells [7]): > 350 µM (not active)

SMILES: CCOc1ccccc1/C=C(\C#N)C(N)=O
- AC50 (Cytochrome P450 2C9): inconclusive

SMILES: Cc1ccc(C2SCCN2C(=O)c2ccc([N+](=O)[O-])cc2)cc1 (centres undefined)
- EC50 [4]: > 112 µM (not active)
- EC50 [5]: > 112 µM (not active)

SMILES: Cc1ccc(S(=O)(=O)Nc2cccc(-c3ccc(N4CCCCCC4)nn3)c2)cc1
- IC50 (Fatty acid synthase [1]): 3.42 µM (active)
- IC50 (Fatty acid synthase [2]): 6.68 µM (active)

SMILES: O=C1NN(c2ccccc2)C(=O)/C1=C/c1ccc(-c2cccc(C(=O)O)c2)o1
- AC50 [8]: 0.228 µM (active)
- IC50 (Genome polyprotein): 30.6 µM (active)
- IC50 [3]: 11 µM (active)
- IC50 (Large T antigen): 24.3 µM (active)

SMILES: Cc1cc(O)nc(SCC(=O)Nc2nonc2C)n1
- EC50 (cells [6]): > 350 µM (not active)
- EC50 (cells [7]): > 350 µM (not active)

SMILES: Cn1cnc([N+](=O)[O-])c1Nc1ccccc1O
- EC50 [4]: > 112 µM (not active)
- EC50 [5]: > 112 µM (not active)

SMILES: COc1ccc(S(=O)(=O)N2CCN(CC(=O)Nc3cccc(F)c3)CC2)cc1
- AC50 (Cytochrome P450 1A2): 0.0794 µM (inconclusive)
- AC50 (Cytochrome P450 2D6): 25.1 µM (inconclusive)
- AC50 (Cytochrome P450 2C9): inconclusive

SMILES: CCCC(=O)Nc1cc(C(F)(F)F)ccc1N1CCOCC1
- EC50 [4]: > 112 µM (not active)
- EC50 [5]: > 112 µM (not active)

SMILES: NC(=NOC(=O)CC1CCCCC1)c1cccc([N+](=O)[O-])c1
- IC50 (Fatty acid synthase [1]): 8.29 µM (active)
- IC50 (Fatty acid synthase [2]): 7.05 µM (active)

SMILES: COc1ccc(N/C=C\C(=O)c2ccc3c(c2)OCO3)cc1
- EC50 (cells [6]): > 350 µM (not active)
- EC50 (cells [7]): 4.39 µM (active)

SMILES: COc1ccc2c(c1)c(=O)oc1c(C)c(OC(C)C(=O)N[C@@H](Cc3c[nH]c4ccc(O)cc34)C(=O)O)ccc12 (some centres undefined)
- IC50 [3]: 6.88 µM (active)

SMILES: C[C@H]1CN([C@@H](C)CO)S(=O)(=O)c2ccc(C#Cc3ccc(F)cc3)cc2O[C@H]1CN(C)C(=O)NC1CCCCC1
- AC50 (Paired box protein Pax-8): 8.09 µM (active)
- AC50 [9]: 44.5 µM (active)

SMILES: CN(CC(=O)Nc1ccccc1Br)C(=O)C(Cc1ccccc1)NC(=O)c1ccccc1 (centres undefined)
- EC50 [4]: > 112 µM (not active)
- EC50 [5]: > 112 µM (not active)

SMILES: C[n+]1ccccc1C1CCCC/C1=N\NC(N)=S (centres undefined)
- IC50 [3]: 5.71 µM (active)

SMILES: CC(C)C(=O)c1c(C(C)C)nn2ccccc12 [IBUDILAST]
- AC50 (Cytochrome P450 2C19): 3.16 µM (inconclusive)
- AC50 (Cytochrome P450 2C9): inconclusive

SMILES: O=C(C[C@@H]1C[C@H]2c3cc(NC(=O)Nc4ccc(C(F)(F)F)cc4)ccc3O[C@H]2[C@H](CO)O1)NCc1ccc(Cl)cc1
- AC50 (Paired box protein Pax-8): 17.5 µM (active)
- AC50 [9]: 68.2 µM (active)

SMILES: CCOC(=O)/C(=N\Nc1cccc(C(F)(F)F)c1)N1CCOCC1
- EC50 [10]: > 160 µM (inconclusive)
- EC50 [11]: > 38 µM (not active)
- EC50 (cells [6]): > 350 µM (not active)
- EC50 (cells [7]): 320 µM (active)

SMILES: CCNC(=O)C[C@@H]1CC[C@@H]2[C@@H](COc3ccc(NC(=O)Cc4cccs4)cc3C(=O)N2C)O1
- AC50 [12]: 41.5 µM (active)

SMILES: O=C(COC(=O)c1ccc(S(=O)(=O)NCc2ccco2)cc1)Nc1ccc(Cl)cn1
- IC50 [3]: 4.79 µM (active)

SMILES: Oc1c(Br)c(Br)c(Br)c(Br)c1Br [PENTABROMOPHENOL]
- IC50 (Fatty acid synthase [1]): 6.52 µM (active)
- IC50 (Fatty acid synthase [2]): 6.27 µM (active)

SMILES: CN(CC1CCCO1)S(=O)(=O)c1ccc(C(=O)Nc2nccs2)cc1 (centres undefined)
- EC50 (cells [6]): > 350 µM (not active)
- EC50 (cells [7]): > 350 µM (not active)

SMILES: O=C(CSc1ccc(-c2ccco2)nn1)c1ccccc1
- EC50 [4]: > 112 µM (not active)
- EC50 [5]: > 112 µM (not active)

SMILES: COc1ccc(CCNC(=O)CC(NC(=O)c2ccccc2Cl)c2ccccc2)cc1 (centres undefined)
- EC50 (cells [6]): > 350 µM (not active)
- EC50 (cells [7]): > 350 µM (not active)

SMILES: COc1ccc(/C=C(\NC(=O)c2ccc([N+](=O)[O-])cc2)C(=O)NCCCn2ccnc2)cc1
- IC50 (Fatty acid synthase [1]): 3.01 µM (active)
- IC50 (Fatty acid synthase [2]): 2.35 µM (active)

SMILES: COCCNC(=O)CSc1nc(-c2ccc(OC)c(OC)c2)cc(C(F)(F)F)n1
- EC50 [4]: > 112 µM (not active)
- EC50 [5]: > 112 µM (not active)

SMILES: O=C(CNC(=O)c1ccc([N+](=O)[O-])cc1)c1ccccc1
- AC50 (Cytochrome P450 2C19): 2.82 µM (inconclusive)
- AC50 (Cytochrome P450 2C9): inconclusive

SMILES: N=C1/C(=C\c2ccc(Br)o2)C(=O)N=C2SC(CC(=O)N3CCCCC3)=NN12
- IC50 [3]: 26.7 µM (active)
- IC50 (Large T antigen): > 100 µM (active)

SMILES: O=C(c1cccnc1)c1cc2ccccc2[nH]1
- EC50 (cells [6]): > 350 µM (not active)
- EC50 (cells [7]): 31.3 µM (active)

SMILES: O=C(Cn1ncc(Cl)c(Cl)c1=O)NC1CCS(=O)(=O)C1 (centres undefined)
- IC50 [3]: 8.49 µM (active)

SMILES: CN(C)S(=O)(=O)c1ccc(Cl)c(NC(=O)CSc2nc3ccccc3c(=O)n2CCCN2CCOCC2)c1
- EC50 [4]: > 112 µM (not active)
- EC50 [5]: 17.8 µM (active)

SMILES: CC(/C=C/c1ccc(Cl)o1)=C\C(=O)O
- EC50 [4]: > 112 µM (not active)
- EC50 [5]: > 112 µM (not active)

SMILES: Cc1ccc(C(=O)N/N=C/c2cc(C)n(-c3ccc(Br)cc3)c2C)cc1[N+](=O)[O-]
- EC50 [13]: 17.4 µM (active)
- EC50 [14]: 11.2 µM (active)
- EC50 [15]: 16.7 µM (active)
- AC50 (Cytochrome P450 2C9): inconclusive
